# Results reported in patent US11999759B2, “Boronic acid derivatives and therapeutic uses thereof” (Qpex Biopharma, Inc., priority 2016, dated 2024).
# Legend:
# [1] = molecular target: VIM-1 (Pseudomonas aeruginosa, UniProt A0A0F7KYQ8); experiment: Inhibition of nitrocefin cleavage by purified VIM-1; type: biochemical; details: nitrocefin reporter substrate; 10 min preincubation at room temperature; read-out: Ki (VIM-1, NCF)
# [2] = molecular target: IMP-1 (Serratia marcescens, UniProt P52699); experiment: Inhibition of imipenem cleavage by purified IMP-1; type: biochemical; details: imipenem reporter substrate; 37° C.; read-out: Ki (IMP-1, IMI)
# Method: Ki values of inhibition of purified class B enzymes NDM-1 and IMP-1 were determined spectrophotometrically using imipenem as reporter substrate. Purified enzymes were mixed with various concentrations of inhibitors in reaction buffer and incubated for 10 min at room temperature. Imipenem was added and substrate cleavage profiles were recorded at 294 nm every 30 seconds for 30 minutes at 37° C. These experiments further confirmed that the described compounds have the ability to inhibit carbapenemase activity of metallo-beta-lactamases.
# [3] = molecular target: Pa-AmpC (Pseudomonas aeruginosa, UniProt P24735); experiment: biochemical; details: nitrocefin reporter substrate; 10 min preincubation at room temperature; read-out: Ki (Pa-AmpC, NCF)
# Method: (§1) Ki values of inhibition of purified class A, C and D enzymes were determined spectrophotometrically using nitrocefin as reporter substrate. Purified enzymes were mixed with various concentrations of inhibitors in reaction buffer and incubated for 10 min at room temperature. Nitrocefin was added and substrate cleavage profiles were recorded at 490 nm every 10 sec for 10 min.
# [4] = molecular target: P99 (Enterobacter cloacae, UniProt P05364); experiment: biochemical; details: nitrocefin reporter substrate; 10 min preincubation at room temperature; read-out: Ki (P99, NCF)
# Method: as §1
# [5] = molecular target: OXA-48 (Klebsiella pneumoniae, UniProt Q6XEC0); experiment: Inhibition of nitrocefin cleavage by purified OXA-48; type: biochemical; details: nitrocefin reporter substrate; 10 min preincubation at room temperature; read-out: Ki (OXA-48, NCF)
# Method: as §1, with “min. These experiments confirmed that the described compounds are inhibitors with a broad-spectrum of activity towards various β-lactamases.” for “min.”
# [6] = molecular target: OXA-23 (Acinetobacter baumannii, UniProt Q9L4P2); experiment: Inhibition of nitrocefin cleavage by purified OXA-23; type: biochemical; details: nitrocefin reporter substrate; 10 min preincubation at room temperature; read-out: Ki (OXA-23, NCF)
# Method: as §1, with “min. These experiments confirmed that the described compounds are inhibitors with a broad-spectrum of activity towards various β-lactamases.” for “min.”
# [7] = molecular target: KPC-2 (Klebsiella pneumoniae, UniProt Q9F663); experiment: Inhibition of nitrocefin cleavage by purified KPC-2; type: biochemical; details: nitrocefin reporter substrate; 10 min preincubation at room temperature; read-out: Ki (KPC-2, NCF)
# Method: as §1, with “min. These experiments confirmed that the described compounds are inhibitors with a broad-spectrum of activity towards various β-lactamases.” for “min.”
# [8] = test system: PAM1032/KPC-2 (overexpressed MexAB-OprM); experiment: Biapenem potentiation (MPC64) in PAM1032/KPC-2; type: cell-based, Pseudomonas aeruginosa; parameters: PAM1032/KPC-2 Biapenem MPC64: unit not given here; details: BLI potency to decrease biapenem MIC 64-fold, from 32 to 0.5 μg/ml; efflux proficient strain
# Method: (§2) Efflux of BLIs from Pseudomonas aeruginosa by the MexAB-OprM efflux pump was also evaluated. The plasmid expressing the gene encoding KPC-2 was introduced into two strains of P. aeruginosa, PAM1032 and PAM1154 that overexpressed or lacked MexAB-OprM, respectively. Due to expression of KPC-2 both strains became resistant to biapenem. […] Potency of BLIs to potentiate biapenem in these strains was determined. […] The ratio of MPC64 values for each BLI in PAM1032/KPC-2 (efflux proficient) and PAM1154/KPC-2 (efflux deficient) was determined to generate the Efflux Index (EI) as shown in Table 8.
# [9] = test system: PAM1154/KPC-2 (lacked MexAB-OprM); experiment: Biapenem potentiation (MPC64) in PAM1154/KPC-2; type: cell-based, Pseudomonas aeruginosa; parameters: PAM1154/KPC-2 Biapenem MPC64: unit not given here; details: BLI potency to decrease biapenem MIC 64-fold, from 32 to 0.5 μg/ml; efflux deficient strain
# Method: as §2
# [10] = molecular target: CTX-M-14 (Escherichia coli, UniProt Q9L5C7); experiment: Inhibition of nitrocefin cleavage by purified CTX-M-14; type: biochemical; details: nitrocefin reporter substrate; 10 min preincubation at room temperature; read-out: Ki (CTX-M-14, NCF)
# Method: as §1
# [11] = molecular target: NDM-1 (Klebsiella pneumoniae, UniProt C7C422); experiment: Inhibition of imipenem cleavage by purified NDM-1; type: biochemical; details: imipenem reporter substrate; 37° C.; read-out: Ki (NDM-1, IMI)
# Method: Purified enzymes were mixed with various concentrations of inhibitors in reaction buffer and incubated for 10 min at room temperature. Imipenem was added and substrate cleavage profiles were recorded at 294 nm every 30 seconds for 30 minutes at 37° C.
# Sequence of NDM-1 (C7C422 29-270, looked up, species assumed): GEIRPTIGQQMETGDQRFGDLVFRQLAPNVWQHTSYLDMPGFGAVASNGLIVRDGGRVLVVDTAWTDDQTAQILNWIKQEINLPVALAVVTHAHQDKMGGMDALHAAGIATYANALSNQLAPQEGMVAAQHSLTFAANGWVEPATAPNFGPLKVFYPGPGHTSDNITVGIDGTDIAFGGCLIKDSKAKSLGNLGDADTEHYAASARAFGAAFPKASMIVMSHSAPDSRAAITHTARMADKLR
# Sequence of Pa-AmpC (P24735 27-397): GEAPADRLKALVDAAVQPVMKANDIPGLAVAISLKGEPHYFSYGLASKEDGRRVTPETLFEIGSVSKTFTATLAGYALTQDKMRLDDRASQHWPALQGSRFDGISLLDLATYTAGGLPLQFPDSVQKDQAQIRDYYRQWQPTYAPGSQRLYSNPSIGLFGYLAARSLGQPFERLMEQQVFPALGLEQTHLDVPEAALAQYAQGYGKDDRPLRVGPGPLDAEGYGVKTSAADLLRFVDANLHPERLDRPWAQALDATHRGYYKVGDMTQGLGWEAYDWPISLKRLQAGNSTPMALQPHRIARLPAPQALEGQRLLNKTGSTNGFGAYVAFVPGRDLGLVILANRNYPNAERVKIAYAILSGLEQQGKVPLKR
# Sequence of CTX-M-14 (Q9L5C7 29-291, species assumed): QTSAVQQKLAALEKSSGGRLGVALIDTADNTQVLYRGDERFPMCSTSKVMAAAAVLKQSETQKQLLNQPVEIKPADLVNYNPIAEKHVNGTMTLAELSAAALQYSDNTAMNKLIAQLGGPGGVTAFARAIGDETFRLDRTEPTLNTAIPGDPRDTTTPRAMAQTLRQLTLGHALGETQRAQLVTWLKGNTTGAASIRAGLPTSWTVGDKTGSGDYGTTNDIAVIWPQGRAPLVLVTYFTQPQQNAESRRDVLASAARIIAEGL
# Sequence of KPC-2 (Q9F663 25-293 limits assumed): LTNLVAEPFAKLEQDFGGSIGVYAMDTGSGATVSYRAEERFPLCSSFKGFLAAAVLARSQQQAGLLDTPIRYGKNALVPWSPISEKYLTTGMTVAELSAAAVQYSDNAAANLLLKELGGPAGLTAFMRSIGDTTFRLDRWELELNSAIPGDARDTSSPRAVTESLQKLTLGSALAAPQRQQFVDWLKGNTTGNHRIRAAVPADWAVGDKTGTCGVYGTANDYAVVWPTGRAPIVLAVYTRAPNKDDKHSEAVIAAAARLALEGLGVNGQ
# Sequence of OXA-23 (Q9L4P2 18-273): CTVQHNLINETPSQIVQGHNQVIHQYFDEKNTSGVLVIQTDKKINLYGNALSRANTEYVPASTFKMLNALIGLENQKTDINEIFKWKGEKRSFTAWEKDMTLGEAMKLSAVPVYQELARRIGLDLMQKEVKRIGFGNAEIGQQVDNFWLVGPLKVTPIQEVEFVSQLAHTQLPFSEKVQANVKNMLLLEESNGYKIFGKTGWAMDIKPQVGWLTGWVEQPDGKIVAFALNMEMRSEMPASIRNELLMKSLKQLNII
# Sequence of P99 (P05364 21-381): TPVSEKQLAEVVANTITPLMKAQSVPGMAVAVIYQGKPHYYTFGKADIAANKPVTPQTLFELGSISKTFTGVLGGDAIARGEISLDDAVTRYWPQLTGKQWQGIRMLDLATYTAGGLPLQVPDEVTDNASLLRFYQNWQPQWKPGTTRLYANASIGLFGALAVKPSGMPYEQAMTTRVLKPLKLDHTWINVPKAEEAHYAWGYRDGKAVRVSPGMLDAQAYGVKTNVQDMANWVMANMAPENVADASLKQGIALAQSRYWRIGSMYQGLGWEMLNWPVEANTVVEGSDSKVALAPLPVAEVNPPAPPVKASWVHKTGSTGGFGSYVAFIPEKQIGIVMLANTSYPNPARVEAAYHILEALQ
# Sequence of OXA-48 (Q6XEC0 23-265, looked up): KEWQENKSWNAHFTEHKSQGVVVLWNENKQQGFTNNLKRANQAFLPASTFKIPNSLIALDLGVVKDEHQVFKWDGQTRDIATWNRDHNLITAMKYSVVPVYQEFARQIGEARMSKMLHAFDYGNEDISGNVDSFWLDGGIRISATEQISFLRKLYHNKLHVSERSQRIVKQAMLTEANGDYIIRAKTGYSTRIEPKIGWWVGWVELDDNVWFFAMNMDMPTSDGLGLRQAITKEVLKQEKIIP
# Sequence of IMP-1 (P52699 19-246, looked up, species assumed): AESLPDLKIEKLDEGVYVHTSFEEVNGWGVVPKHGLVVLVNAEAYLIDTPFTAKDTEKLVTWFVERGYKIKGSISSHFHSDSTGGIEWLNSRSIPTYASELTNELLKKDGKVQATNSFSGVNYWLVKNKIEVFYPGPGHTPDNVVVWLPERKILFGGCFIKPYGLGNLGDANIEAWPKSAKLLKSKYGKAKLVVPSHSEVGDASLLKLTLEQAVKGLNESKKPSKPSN
SMILES,Ki [1] [nM],Ki [2] [nM],Ki [3] [nM],Ki [4] [nM],Ki [5] [nM],Ki [6] [nM],Ki [7] [nM],PAM1032/KPC-2 Biapenem MPC64 [8],PAM1154/KPC-2 Biapenem MPC64 [9],Ki [10] [nM],Ki [11] [nM]
"O=C(O)c1c(F)ccc2c1OB(O)CC21CC1 [Compound 15, 8-fluoro-4,4-dihydroxy-spiro[5-oxa-4-boranuidabicyclo[4.4.0]deca-1(6),7,9-triene-2,1′-cyclopropane]-7-carboxylic acid]",> 1000,> 1000,< 100,< 100,< 100,< 100,< 100,5,1.25,< 100,100 to 1000
"O=C(O)c1cccc2c1OB(O)CC21CC1 [Compound 14, 4,4-dihydroxyspiro[5-oxa-4-boranuidabicyclo[4.4.0]deca-1(6),7,9-triene-2,1′-cyclopropane]-7-carboxylic acid]",> 1000,> 1000,< 100,< 100,< 100,< 100,< 100,40,1.25,< 100,< 100
"O=C(O)c1c(F)c(F)cc2c1OB(O)C1CC21 (stereo not shown) [Compound 19, 5,6-difluoro-2,2-dihydroxy-1a,7b-dihydro-1H-cyclopropa[c][1,2]benzoxaborinine-4-carboxylic acid]",< 100,> 1000,< 100,< 100,< 100,< 100,< 100,5,1.25,< 100,100 to 1000
"O=C(O)c1cccc2c1OB(O)[C@H]1C[C@@H]21 [Compound 18, (1aS,7bR)-2,2-dihydroxy-1a,7b-dihydro-1H-cyclopropa[c][1,2]benzoxaborinine-4-carboxylic acid]",100 to 1000,> 1000,100 to 1000,100 to 1000,< 100,100 to 1000,< 100,5,0.3,< 100,< 100
"COc1ccc2c(c1C(=O)O)OB(O)C1CC21 (stereo not shown) [Compound 1, 2-Hydroxy-5-methoxy-1a,7b-dihydro-1H-cyclopropa[c][1,2]benzoxaborinine-4-carboxylic acid]",< 100,< 100,< 100,< 100,< 100,< 100,< 100,2.5,1.25,< 100,< 100
"COc1ccc2c(c1C(=O)O)OB(O)[C@@H]1COC[C@H]21 [Compound 23, (3aS,9bS)-4,4-dihydroxy-7-methoxy-1,3,3a,9b-tetrahydrofuro[3,4-c][1,2]benzoxaborinine-6-carboxylic acid]",100 to 1000,> 1000,100 to 1000,< 100,< 100,< 100,< 100,20,20,< 100,< 100
"COc1ccc2c(c1C(=O)O)OB(O)[C@@H]1C[C@H]21 [Compound 3, (1aR,7bS)-2-hydroxy-5-methoxy-1a,7b-dihydro-1H-cyclopropa[c][1,2]benzoxaborinine-4-carboxylic acid]",< 100,< 100,< 100,< 100,< 100,< 100,< 100,5,2.5,< 100,< 100
"O=C(O)c1c(OCCF)ccc2c1OB(O)C1CC21 (stereo not shown) [Compound 17, 5-(2-fluoroethoxy)-2,2-dihydroxy-1a,7b-dihydro-1H-cyclopropa[c][1,2]benzoxaborinine-4-carboxylic acid]",< 100,< 100,< 100,< 100,< 100,< 100,< 100,20,5,< 100,< 100
"O=C(O)c1cccc2c1OB(O)[C@@H]1C[C@H]21 [Compound 16, (1aR,7bS)-2,2-dihydroxy-1a,7b-dihydro-1H-cyclopropa[c][1,2]benzoxaborinine-4-carboxylic acid]",< 100,< 100,< 100,< 100,< 100,< 100,< 100,1.25,0.3,< 100,< 100
"COc1ccc2c(c1C(=O)O)OB(O)[C@H]1C[C@@H]21 [Compound 2, (1aS,7bR)-2-hydroxy-5-methoxy-1a,7b-dihydro-1H-cyclopropa[c][1,2]benzoxaborinine-4-carboxylic acid]",100 to 1000,> 1000,< 100,< 100,< 100,< 100,< 100,2.5,1.25,< 100,100 to 1000
"COc1ccc2c(c1C(=O)O)OB(O)C1C2C1(F)F (stereo not shown) [Compound 5, 1,1-Difluoro-2-hydroxy-5-methoxy-1a,7b-dihydrocyclopropa[c][1,2]benzoxaborinine-4-carboxylic acid]",> 1000,> 1000,> 1000,100 to 1000,< 100,< 100,< 100,20,10,< 100,100 to 1000
